Read-outs that look alike come from different tables or passages of the source.
Tested on: cucumber gray mold disease fungi (Botrytis cinerea)
Experiment: Cucumber gray mold control test
Type: in vivo
Details: for pest or weed control at 0.025 ppm: Compound A 0.025 ppm alone (Compound B 0 ppm); for pest or weed control at 0.0063 ppm: Compound A 0.0063 ppm alone (Compound B 0 ppm)
Method: The compound A and the compound B were dissolved in an organic solvent and a surfactant to obtain an emulsion. The emulsion was diluted to a prescribed concentration with water. The dilute emulsion was sprayed to cotyledons of cucumber (variety: Shimoshirazu). They were naturally dried at room temperature. Thereafter, a conidiospore suspension of cucumber gray mold disease fungi (Botrytis cinerea) was dropwise inoculated. It was placed in a dark room at 20° C. and high humidity for 4 days. Appearance of disease spots on the leaves and that on untreated leaves were compared and studied, and a control ratio was calculated. The test was carried out in duplicate.
Based on the Colby's equation, a theoretical control ratio in the dilute emulsion prepared by using the compound A and the compound B together was calculated from a measured control ratio in the dilute emulsion prepared by using the compound A alone and that in the dilute emulsion prepared by using the compound B alone. Colby's equation: E=M+N−MN/100
M: measured control ratio (%) in dilute emulsion prepared by using compound A alone
N: measured control ratio (%) in dilute emulsion prepared by using compound B alone
E: theoretical control ratio (%) in dilute emulsion prepared by using compound A and compound B together
A control ratio of 0% means that disease spots of the same level as those of the non-treatment plot were observed, and a control ratio of 100% means that no disease spot was observed.
The test was carried out in the same manner as in Example 1.

[1] = Botrytis cinerea, 96 h, read-out: Cucumber gray mold control ratio, Table 4
[2] = Botrytis cinerea, 96 h, read-out: Cucumber gray mold control ratio, Table 5
[3] = Botrytis cinerea, 96 h, Table 4, Compound B 100 ppm alone (Compound A 0 ppm), read-out: Cucumber gray mold control ratio
[4] = Botrytis cinerea, 96 h, Table 4, Compound B 0.4 ppm alone (Compound A 0 ppm), read-out: Cucumber gray mold control ratio
[5] = Botrytis cinerea, 96 h, Table 4, Compound B 1.6 ppm alone (Compound A 0 ppm), read-out: Cucumber gray mold control ratio

## Cc1ccc2nc3sc(=O)sc3nc2c1 [Chinomethionat, chinomethionat]
Botrytis cinerea, 96 h, read-out: Cucumber gray mold control ratio, Table 5, Compound B 100 ppm alone (Compound A 0 ppm)
  pest or weed control at 100 µg/mL: 20%
Botrytis cinerea, 96 h, read-out: Cucumber gray mold control ratio, Table 5, Compound B 400 ppm alone (Compound A 0 ppm)
  pest or weed control at 400 µg/mL: 14%

## Cc1nc2c(F)c(F)ccc2cc1Oc1cccc(F)c1C(C)(C)O [Compound A, 2-{2-[(7,8-difluoro-2-methylquinolin-3-yl)oxy]-6-fluorophenyl}propan-2-ol]
Botrytis cinerea, 96 h, read-out: Cucumber gray mold control ratio, Table 1
  pest or weed control at 0.025 ppm: 24%
Botrytis cinerea, 96 h, read-out: Cucumber gray mold control ratio, Table 1, Compound A 0.1 ppm alone (Compound B 0 ppm)
  pest or weed control at 0.1 ppm: 89%
Botrytis cinerea, 96 h, read-out: Cucumber gray mold control ratio, Table 2
  pest or weed control at 0.025 ppm: 17%
Botrytis cinerea, 96 h, read-out: Cucumber gray mold control ratio, Table 2, Compound A 0.1 ppm alone (Compound B 0 ppm)
  pest or weed control at 0.1 ppm: 48%
Botrytis cinerea, 96 h, read-out: Cucumber gray mold control ratio, Table 3
  pest or weed control at 0.025 ppm: 5%
Botrytis cinerea, 96 h, read-out: Cucumber gray mold control ratio, Table 3, Compound A 0.1 ppm alone (Compound B 0 ppm)
  pest or weed control at 0.1 ppm: 53%
[1]
  pest or weed control at 0.0063 ppm: 10%
  pest or weed control at 0.025 ppm: 7%
Botrytis cinerea, 96 h, read-out: Cucumber gray mold control ratio, Table 4, Compound A 0.1 ppm alone (Compound B 0 ppm)
  pest or weed control at 0.1 ppm: 26%
[2]
  pest or weed control at 0.0063 ppm: 3%
  pest or weed control at 0.025 ppm: 17%
Botrytis cinerea, 96 h, read-out: Cucumber gray mold control ratio, Table 5, Compound A 0.1 ppm alone (Compound B 0 ppm)
  pest or weed control at 0.1 ppm: 64%

## C=CCNC(=O)c1c([Si](C)(C)C)sc(C)c1C [Compound B, silthiofam]
Botrytis cinerea, 96 h, read-out: Cucumber gray mold control ratio, Table 1, Compound B 400 ppm alone (Compound A 0 ppm)
  pest or weed control at 400 ppm: 0%
Botrytis cinerea, 96 h, read-out: Cucumber gray mold control ratio, Table 2, Compound B 6.3 ppm alone (Compound A 0 ppm)
  pest or weed control at 6.3 ppm: 0%
Botrytis cinerea, 96 h, read-out: Cucumber gray mold control ratio, Table 2, Compound B 25 ppm alone (Compound A 0 ppm)
  pest or weed control at 25 ppm: 0%
Botrytis cinerea, 96 h, read-out: Cucumber gray mold control ratio, Table 2, Compound B 100 ppm alone (Compound A 0 ppm)
  pest or weed control at 100 ppm: 5%
Botrytis cinerea, 96 h, read-out: Cucumber gray mold control ratio, Table 3, Compound B 0.1 ppm alone (Compound A 0 ppm)
  pest or weed control at 0.1 ppm: 0%
Botrytis cinerea, 96 h, read-out: Cucumber gray mold control ratio, Table 3, Compound B 0.4 ppm alone (Compound A 0 ppm)
  pest or weed control at 0.4 ppm: 0%
Botrytis cinerea, 96 h, read-out: Cucumber gray mold control ratio, Table 3, Compound B 1.6 ppm alone (Compound A 0 ppm)
  pest or weed control at 1.6 ppm: 0%

## N#Cc1sc2c(=O)c3ccccc3c(=O)c=2sc1C#N [Dithianon, dithianon]
Botrytis cinerea, 96 h, Table 4, Compound B 25 ppm alone (Compound A 0 ppm), read-out: Cucumber gray mold control ratio
  pest or weed control at 25 µg/mL: 13%
[3]
  pest or weed control at 100 µg/mL: 10%

## CC#Cc1cc(C)nc(Nc2ccccc2)n1 [Mepanipyrim, mepanipyrim]
[4]
  pest or weed control at 0.4 µg/mL: 19%
[5]
  pest or weed control at 1.6 µg/mL: 29%

## CC1(C)CCC(Cc2ccc(Cl)cc2)C1(O)Cn1cncn1 (stereo not drawn) [Metconazole, metconazole]
[4]
  pest or weed control at 0.4 µg/mL: 22%
[5]
  pest or weed control at 1.6 µg/mL: 29%

## CN(C)[C@@H]1C(O)=C(C(N)=O)C(=O)[C@@]2(O)C(O)=C3C(=O)c4c(O)cccc4[C@@](C)(O)[C@H]3[C@H](O)[C@@H]12 [Oxytetracycline, oxytetracycline]
Botrytis cinerea, 96 h, Table 5, Compound B 100 ppm alone (Compound A 0 ppm), read-out: Cucumber gray mold control ratio
  pest or weed control at 100 µg/mL: 18%
Botrytis cinerea, 96 h, Table 5, Compound B 400 ppm alone (Compound A 0 ppm), read-out: Cucumber gray mold control ratio
  pest or weed control at 400 µg/mL: 21%

## CCCC1COC(Cn2cncn2)(c2ccc(Cl)cc2Cl)O1 (stereo not drawn) [Propiconazole, propiconazole]
Botrytis cinerea, 96 h, Table 5, Compound B 1.6 ppm alone (Compound A 0 ppm), read-out: Cucumber gray mold control ratio
  pest or weed control at 1.6 µg/mL: 26%
Botrytis cinerea, 96 h, Table 5, Compound B 6.3 ppm alone (Compound A 0 ppm), read-out: Cucumber gray mold control ratio
  pest or weed control at 6.3 µg/mL: 42%

## COC(=O)N(OC)c1ccccc1COc1ccn(-c2ccc(Cl)cc2)n1 [Pyraclostrobin, pyraclostrobin]
[5]
  pest or weed control at 1.6 µg/mL: 23%
Botrytis cinerea, 96 h, Table 4, Compound B 6.3 ppm alone (Compound A 0 ppm), read-out: Cucumber gray mold control ratio
  pest or weed control at 6.3 µg/mL: 46%

## Cc1cc(C)nc(Nc2ccccc2)n1 [Pyrimethanil, pyrimethanil]
[4]
  pest or weed control at 0.4 µg/mL: 6%
[5]
  pest or weed control at 1.6 µg/mL: 16%

## [H]/N=C(/N)N[C@H]1[C@H](O)[C@@H](O)[C@H](O[C@@H]2O[C@@H](C)[C@](O)(C=O)[C@H]2O[C@@H]2O[C@@H](CO)[C@H](O)[C@@H](O)[C@@H]2NC)[C@@H](N/C(N)=N\[H])[C@@H]1O [Streptomycin, streptomycin]
[3]
  pest or weed control at 100 µg/mL: 12%
Botrytis cinerea, 96 h, Table 4, Compound B 400 ppm alone (Compound A 0 ppm), read-out: Cucumber gray mold control ratio
  pest or weed control at 400 µg/mL: 13%

## propineb
Table 5, Compound B 100 ppm alone (Compound A 0 ppm)
  Cucumber gray mold control ratio: 27%
Table 5, Compound B 400 ppm alone (Compound A 0 ppm)
  Cucumber gray mold control ratio: 33%

— patent US11553716B2, “Agricultural and horticultural fungicide composition” (Nippon Soda Co., Ltd., priority 2018, dated 2023)
